Publication PMC8725448 (Journal of Cannabis Research, 2022)
Entries after “also recorded” stand apart in the source; their conditions may differ.

Tests used:
human GPR55 = molecular target: T1, human GPR55 (Homo sapiens, UniProt Q9Y2T6); experiment: GPR55 pERK assay (AlphaScreen SureFire Phospho-ERK1/2); format: cell-based; conditions: 10 μM; LPI at EC80; HEK293 cells expressing human GPR55
T1 construct: expressed in transfected cells; host or cells: HEK293
Experimental: ERK phosphorylation (pERK) was detected using the AlphaScreen® SureFire® Phospho-ERK1/2 assay (Perkin Elmer; Waltham, USA) as previously described (Anderson et al. [2021b]). Briefly, the human embryonic kidney (HEK) 293 cells stably expressing human GPR55 in L-15 media were plated (110,000/well) into a Corning CellBIND (Corning Inc; Corning, USA) clear, flat-bottomed 96-well plate and incubated 20–24 h at 37°C in ambient CO2. Media was aspirated, 50 μL phenol red-free DMEM/F-12 was added to each well and incubated for 2–3 h at 37°C in a humidified 5% CO2 atmosphere. Compounds (10 μM in phenol red-free DMEM/F-12) were added and incubated for 20 min before media was aspirated and lysis buffer was added. Lysates (5 μL) were incubated with reaction mixture (7 μL) for 3.5 h at room temperature. A CLARIOstar plate reader (BMG Labtech; Offenburg, GER) was used to take fluorescence readings over 740 msec (excitation 680 nm, emission 520–620 nm). Fluorescence readings were normalized to those of 4 μM LPI, the endogenous GPR55 agonist. […] Final DMSO concentrations were ≤ 0.2%. Statistical comparisons were made in GraphPad Prism using one-way ANOVA followed by Dunnett’s post hoc and p < 0.05 was considered statistically significant.

[1] = system: hyperthermia-induced seizures in Scn1a^+/- mice; experiment: Hyperthermia-induced seizures in Scn1a+/- mouse model of Dravet syndrome; format: in vivo
Experimental: Hyperthermia-induced seizure experiments were conducted on male and female Scn1a^+/- mice at P14-16 as previously described (Hawkins et al. [2017]). No significant sex differences were observed so males and females were combined across groups. Briefly, for CBGA methyl ester experimental animals a RET-3 rectal temperature probe was inserted 30 min after i.p. injections of vehicle or CBGA methyl ester. Mice acclimated to the probe for 5 min before hyperthermia protocol began. Olivetolic acid experimental animals acclimated to the rectal temperature probe for 5 min then received an i.p. injection of vehicle or olivetolic acid immediately before the hyperthermia protocol was initiated. Mouse core body temperature was elevated 0.5°C every 2 min until the onset of first clonic convulsion with loss of posture or until 42.5°C was reached. The dose range (10, 30, or 100 mg/kg) was chosen to provide a point of direct comparison to CBGA, which is anticonvulsant at 30 and 100 mg/kg. Seizure threshold temperatures were compared in GraphPad Prism 8.2 (LaJolla, USA) using Mantel-Cox logrank test and p < 0.05 was considered statistically significant. Following the hyperthermia-induced seizure protocol, the plasma samples were isolated as described for the pharmacokinetic analysis from a cohort of experimental mice.

T1 sequence (Q9Y2T6 whole entry): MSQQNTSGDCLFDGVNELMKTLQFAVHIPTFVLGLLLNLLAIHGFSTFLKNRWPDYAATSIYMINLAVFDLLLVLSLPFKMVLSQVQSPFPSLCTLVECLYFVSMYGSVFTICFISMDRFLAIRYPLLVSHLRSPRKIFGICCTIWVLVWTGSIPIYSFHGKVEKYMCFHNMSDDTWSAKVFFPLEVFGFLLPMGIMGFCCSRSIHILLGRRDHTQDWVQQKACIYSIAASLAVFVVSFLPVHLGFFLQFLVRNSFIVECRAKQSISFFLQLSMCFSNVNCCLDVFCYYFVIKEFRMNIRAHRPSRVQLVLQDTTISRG

CCCCCc1cc(O)cc(O)c1C(=O)O [Olivetolic acid]
inhibition of GPR55 activity (pERK relative to agonist LPI alone) (human GPR55): did not inhibit; also recorded: ineffective
increase of GTCS temperature threshold ([1]; 100 mg/kg i.p., Scn1a+/- mice): approximately 0.4 °C
anticonvulsant effect (GTCS temperature threshold) ([1]; 100 mg/kg i.p., Scn1a+/- mice P14-16): modest but significant anticonvulsant effect; also recorded: significantly increased the temperature threshold for GTCS

CCCCCc1cc(O)c(C/C=C(\C)CCC=C(C)C)c(O)c1C(=O)OC [CBGA methyl ester]
inhibition of GPR55 activity (pERK relative to agonist LPI alone) (human GPR55): did not inhibit; also recorded: no effect
effect on hyperthermia-induced seizures ([1]; any dose tested (10, 30, 100 mg/kg i.p.), Scn1a+/- mice P14-16): no effect; also recorded: ineffective
